In patent US5312816A, “Method of combatting osteoporosis in mammalian subjects, utilizing organic boron compounds” (priority 1993, dated 1994):
Each block holds one molecule with its values, some of them ahead of it.

Key:
[1] = biological target: T1, Prostaglandin synthetase (Bos taurus, UniProt O62664); assay: Prostaglandin synthetase (cyclooxygenase), purified beef seminal vesicle; assay type: biochemical; settings: Table IX; commercial enzyme preparation; read-out: Beef Prostaglandin Cyclooxygenase IC50
T1 construct: Prostaglandin synthetase purified beef seminal vesicle; from tissue
T1 sequence (O62664 25-600): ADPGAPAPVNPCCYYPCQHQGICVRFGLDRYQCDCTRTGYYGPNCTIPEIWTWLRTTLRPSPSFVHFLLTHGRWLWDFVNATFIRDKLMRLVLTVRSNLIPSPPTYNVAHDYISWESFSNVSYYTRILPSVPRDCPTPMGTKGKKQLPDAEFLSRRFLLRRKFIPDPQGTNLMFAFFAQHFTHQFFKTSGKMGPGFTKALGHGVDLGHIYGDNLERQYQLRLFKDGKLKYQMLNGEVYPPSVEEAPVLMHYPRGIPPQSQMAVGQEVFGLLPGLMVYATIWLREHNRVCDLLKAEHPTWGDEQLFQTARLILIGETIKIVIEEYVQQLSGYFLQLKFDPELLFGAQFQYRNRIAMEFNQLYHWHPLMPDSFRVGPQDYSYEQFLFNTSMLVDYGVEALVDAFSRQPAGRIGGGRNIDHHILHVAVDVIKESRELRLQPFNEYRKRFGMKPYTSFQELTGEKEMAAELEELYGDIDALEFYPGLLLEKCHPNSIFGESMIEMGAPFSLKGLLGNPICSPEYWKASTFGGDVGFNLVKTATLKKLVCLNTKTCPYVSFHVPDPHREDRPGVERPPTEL
Text: (§1) Prostaglandin synthetase purified beef seminal vesicle ^3 H arachidonic acid (86.2 Ci/mmol), tlc separation.

[2] = test system: Phosphorus; assay: Serum and urine inorganic phosphorus levels in vivo; settings: Cf1 male mice, 8 mg/kg/day I.P. 14 days, N=6
[3] = biological target: T2, Porcine Pancreatic Elastase (Sus scrofa, UniProt P00772); assay: Porcine pancreatic elastase activity in vitro; assay type: biochemical; settings: Table IX; commercial enzyme preparation
T2 construct: purchased; host or cells: porcine pancreas
T2 sequence (P00772 27-266): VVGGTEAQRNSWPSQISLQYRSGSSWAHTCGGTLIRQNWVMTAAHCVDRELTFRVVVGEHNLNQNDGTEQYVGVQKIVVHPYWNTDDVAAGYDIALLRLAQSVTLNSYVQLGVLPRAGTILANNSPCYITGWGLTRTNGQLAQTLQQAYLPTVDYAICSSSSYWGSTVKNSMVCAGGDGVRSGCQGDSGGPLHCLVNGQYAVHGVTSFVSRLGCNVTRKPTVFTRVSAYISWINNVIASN
Text: (§2) 2. Elastase- N-succinyl-L-alanyl-L-alanine-p-nitroanilide, pH 8.0, p-nitro anilide 410 nm.

[4] = test system: Calcium; assay: Serum and urine calcium levels in vivo; settings: Cf1 male mice, 8 mg/kg/day I.P. 14 days, N=6
[5] = test system: Hydroxyproline; assay: Serum and urine hydroxyproline levels in vivo; settings: Cf1 male mice, 8 mg/kg/day I.P. 14 days, N=6
[6] = test system: Cf1 male mice; assay: Writhing reflex, 0.6% acetic acid; assay type: in vivo; parameters: response vs control in vivo: dose or concentration left out as unconfirmed
[7] = test system: Hepatic oxidative phosphorylation; assay: Hepatic oxidative phosphorylation, Gilson oxygraph; assay type: biochemical, mouse; settings: 10^-6 M; 1 µM
Text: (§3) 1. Cf1 male mouse hepatic 10% homogenates in 0.25M sucrose+0.001MEDTA,pH 7.2.

[8] = test system: Trypsin; assay: Mouse macrophage trypsin (BAEE) activity; assay type: cell-based
[9] = in vivo; settings: mouse, Table 1, N=6
Method: Amine borane compounds (0 to 100 mg/kg) were administered to CF1 male mice as a single injection with six mice for each dosage. Mice were weighed daily and the number of deaths was recorded each day for a 14 day period. The LD50 value was determined by the procedure of S.C. Gad and C.S. Weil, "Statistics for Toxicologists" in Principles and Methods of Toxicology, A.W. Hayes, Ed., 2nd Edition, P 435-483 Raven Press, New York 1982.

[10] = test system: cAMP; assay: PMNs cAMP levels, Gilman's radioimmune assay; assay type: cell-based, rat; settings: 5 × 10^-6 M, N=6
Text: (§4) 2. PMNs-polymorphonuclear neutrophils-rat peritoneal cavity 0.5% oyster glycogen.
cAMP levels Gilman's radioimmune assay. ^3 H(G)Cyclic-3', 5'-adenosine monophosphate.

[11] = test system: Elastase; assay: Mouse macrophage elastase activity; assay type: cell-based
[12] = biological target: T3, Cathepsin D (Mus musculus, UniProt P18242); assay: Mouse hepatic lysosomal cathepsin D activity; assay type: biochemical
T3 construct: azocasein assay pH 5.0
T3 sequence (P18242 65-410): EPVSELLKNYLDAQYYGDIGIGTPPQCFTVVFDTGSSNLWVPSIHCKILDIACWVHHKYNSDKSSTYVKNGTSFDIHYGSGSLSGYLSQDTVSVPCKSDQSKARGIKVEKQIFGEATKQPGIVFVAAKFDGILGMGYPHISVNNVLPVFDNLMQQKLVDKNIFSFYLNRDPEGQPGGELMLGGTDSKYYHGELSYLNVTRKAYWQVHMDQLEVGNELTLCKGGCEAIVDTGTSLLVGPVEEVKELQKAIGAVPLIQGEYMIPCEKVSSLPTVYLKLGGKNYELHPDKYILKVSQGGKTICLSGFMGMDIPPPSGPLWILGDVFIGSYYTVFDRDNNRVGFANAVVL
Text: as §3
(§5) Lysosomal Enzymes - free and total [triton X-100].
(§6) 2. Acid Cathepsin D -azocasein-pH 5.0, hydrolytic azo-peptide produce 366 nm.
Cathepsin azo casein activity -

[13] = test system: Cf1 male mice; assay: Writhing reflex, 0.6% acetic acid; assay type: in vivo; settings: Table 1; Indomethacin 10 mg/kg
Method: Writhing reflex- Cf1 -male mice- 0.6% acetic acid I.P. drugs administered @20 mg/kg/ I.P. 20 min. later - the # of stretches/10 min.
Hendershot, L.C., et al, J.

[14] = test system: Acid phosphatase; assay: Rat PMNs acid phosphatase activity; assay type: cell-based; settings: 5 × 10^-6 M, N=6; 5 µM
Text: as §4
(§7) 1. Acid phosphatase -beta glycerol-3-phosphate, pH 5.0, released IP 720 nm.

[15] = test system: Sprague Dawley Rats; assay: Anti-inflammatory activity in Sprague Dawley rats; assay type: in vivo; settings: Table IV; 8 mg/kg I.P.
[16] = biological target: T4, Cathepsin (Rattus norvegicus, UniProt P24268); assay: Rat PMNs cathepsin activity; assay type: cell-based; settings: pH 5; 5 × 10^-6 M, N=6; read-out: Rat PMNs Cathep.
T4 construct: azocasein assay pH 5.0
T4 sequence (P24268 65-407): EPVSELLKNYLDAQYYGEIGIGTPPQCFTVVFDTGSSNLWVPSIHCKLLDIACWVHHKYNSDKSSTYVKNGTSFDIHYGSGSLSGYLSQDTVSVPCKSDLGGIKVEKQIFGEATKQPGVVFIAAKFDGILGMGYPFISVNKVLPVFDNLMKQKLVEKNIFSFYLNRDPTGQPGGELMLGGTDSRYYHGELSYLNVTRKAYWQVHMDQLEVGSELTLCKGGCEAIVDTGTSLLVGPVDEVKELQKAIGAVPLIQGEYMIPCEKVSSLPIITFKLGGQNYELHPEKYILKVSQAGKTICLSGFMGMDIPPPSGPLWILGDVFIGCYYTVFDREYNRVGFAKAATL
Text: as §4, §6

[17] = test system: Acid phosphatase; assay: Mouse hepatic lysosomal acid phosphatase activity; assay type: biochemical; settings: 5 × 10^-6 M, N=6; 5 µM
Text: as §3, §5, §7
Acid phosphatase activity -

[18] = test system: Cf1 male mice; assay: Anti-inflammatory screen, Winter's test, 2% carrageenan hind foot; assay type: in vivo
Method: Anti-inflammatory Screen- Cf1 - male mice-Winter's Test 2% carrageenan S.C. plantar surface of hind foot, drugs administered @8 or 10 mg/kg I.P. 2X
Winter, C.A., et al, Proc. Soc.

[19] = test system: Prostaglandin cyclooxygenase; assay: Mouse macrophage prostaglandin cyclooxygenase activity; assay type: cell-based
Text: (§8) 3. Mouse macrophages J774A.1 BALB/c
as §1

[20] = test system: Aryl sulphatase; assay: Mouse macrophage aryl sulphatase activity; assay type: cell-based; settings: Table VII; mouse macrophage cultured cells, 60 min incubation; read-out: Aryl Sulphatase IC50
[21] = biological target: T3, Cathepsin D; assay: Mouse macrophage cathepsin D activity; assay type: cell-based; settings: Table VII; mouse macrophage cultured cells, DMEM +10% FCS +P/S, 60 min incubation; read-out: Cathepsin D IC50
Text: as §8, §6

[22] = test system: Sprague Dawley male rats; assay: Chronic adjuvant arthritis screen, Mycobacterium butyricum; assay type: in vivo; settings: Table 1; Indomethacin 10 mg/kg
[23] = test system: Acid phosphatase; assay: Mouse macrophage acid phosphatase activity; assay type: cell-based
[24] = biological target: T5, Cathepsin D (Homo sapiens, UniProt P07339); assay: Human osteoporosis fibroblasts cathepsin D (azo-casein) activity; assay type: cell-based; settings: Table X; human osteoporosis fibroblasts, DMEM +10% FCS + P/S; read-out: Cathepsin D IC50
T5 construct: azocasein assay pH 5.0
T5 sequence (P07339 65-412): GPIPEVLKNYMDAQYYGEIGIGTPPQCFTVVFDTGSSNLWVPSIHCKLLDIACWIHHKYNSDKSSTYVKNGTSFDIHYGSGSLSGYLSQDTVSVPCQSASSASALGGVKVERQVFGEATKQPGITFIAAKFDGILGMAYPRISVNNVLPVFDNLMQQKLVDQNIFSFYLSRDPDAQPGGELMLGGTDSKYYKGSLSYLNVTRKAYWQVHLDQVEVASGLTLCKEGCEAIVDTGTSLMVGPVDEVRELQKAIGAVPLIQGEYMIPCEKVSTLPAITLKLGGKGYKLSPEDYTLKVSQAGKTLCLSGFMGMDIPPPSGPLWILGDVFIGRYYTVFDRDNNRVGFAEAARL
Text: Osteoporosis Human Fibroblast-CRL-1140, Be SA1

[25] = test system: Trypsin; assay: Human osteoporosis fibroblasts trypsin (BAEE) activity; assay type: cell-based; settings: read-out: Trypsin BAEE IC50; Table XI; human osteoporosis fibroblasts, 60 min incubation
Text: 1. Trypsin- N-benzoyl-L-arginine ethyl ester pH 8.0, hydrolytic product 253 nm.

[26] = test system: Aryl sulphatase; assay: Human osteoporosis fibroblasts aryl sulphatase activity; assay type: cell-based; settings: read-out: Aryl Sulphatase IC50; Table X; human osteoporosis fibroblasts
Text: 3. Aryl sulphatase- p-nitrocatechol sulfate, pH
5. 8 p-nitro-catechol product 510 nm.

[27] = test system: Acid phosphatase; assay: Human osteoporosis fibroblasts acid phosphatase activity; assay type: cell-based; settings: read-out: Acid Phosphatase IC50; Table X; human osteoporosis fibroblasts
Text: as §7

[28] = biological target: T6, 5'-lipoxygenase (Mus musculus, UniProt P48999); assay: Mouse hepatic 5'-lipoxygenase activity; assay type: biochemical; settings: Table VI; mouse hepatic, 60 min incubation; read-out: 5'-lipoxygenase IC50
T6 construct: Cf1 male mouse hepatic 10% homogenates; from tissue; host or cells: CF1 male mouse liver, 10% homogenate
T6 sequence (P48999 1-674): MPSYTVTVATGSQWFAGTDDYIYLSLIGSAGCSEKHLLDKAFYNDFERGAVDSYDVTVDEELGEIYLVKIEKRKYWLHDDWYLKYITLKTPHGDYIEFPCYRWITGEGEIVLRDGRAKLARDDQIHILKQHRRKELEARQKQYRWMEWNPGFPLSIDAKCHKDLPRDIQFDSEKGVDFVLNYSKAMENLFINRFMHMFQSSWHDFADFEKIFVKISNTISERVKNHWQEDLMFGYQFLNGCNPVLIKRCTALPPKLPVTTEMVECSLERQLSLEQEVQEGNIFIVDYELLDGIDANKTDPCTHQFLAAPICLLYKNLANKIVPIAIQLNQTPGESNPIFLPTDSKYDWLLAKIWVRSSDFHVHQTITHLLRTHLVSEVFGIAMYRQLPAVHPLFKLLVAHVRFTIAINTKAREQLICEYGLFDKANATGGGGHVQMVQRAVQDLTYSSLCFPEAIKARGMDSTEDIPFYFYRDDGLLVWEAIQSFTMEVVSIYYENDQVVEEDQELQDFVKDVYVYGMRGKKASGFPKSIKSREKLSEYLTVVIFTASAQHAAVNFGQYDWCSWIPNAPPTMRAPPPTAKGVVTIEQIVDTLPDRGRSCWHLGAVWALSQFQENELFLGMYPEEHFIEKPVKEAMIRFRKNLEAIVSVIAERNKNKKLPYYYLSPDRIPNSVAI
Text: as §3
5'-lipoxygenase Mylari, B.L., et al, J. Med.

[29] = test system: Elastase; assay: Human osteoporosis fibroblasts elastase activity; assay type: cell-based; settings: read-out: Elastase IC50; Table XI; human osteoporosis fibroblasts, 60 min incubation
Text: as §2

[30] = test system: Cathepsin; assay: Human leukocyte cathepsin; assay type: cell-based; settings: read-out: Cathepsin IC50; Table XII; human leukocytes, 60 min incubation
Text: 5. Human peripheral leukocytes, RPMI-1788
as §6

[31] = test system: Prostaglandin cyclooxygenase; assay: Human osteoporosis fibroblasts prostaglandin cyclooxygenase activity; assay type: cell-based; settings: read-out: Prostaglandin Cyclooxygense IC50, Table XI, 60 min incubation

IC50 [1]: 1.92 µM
IC50 [3]: 27.6 µM
SMILES: CCCCCCCCCCCCCCCCCC[N+](C)(C)[BH2-]C(=O)O [Compound 6, N,N-Dimethyloctadecylamine-carboxyborane]
Phosphorus serum [2]: 86.2 % Control
Phosphorus urine [2]: 65.4 % Control
Calcium serum [4]: 135.4 % Control
Calcium urine [4]: 64.4 % Control
Hydroxyproline serum [5]: 76.4 % Control
Hydroxyproline urine [5]: 60.6 % Control
response vs control in vivo at 20 mg/kg ([6]; Mus musculus, ip, Table IV): 14.1%

SMILES: C[N+](C)(C)[BH2-]C(=O)O [Compound 3, Trimethylamine-carboxyborane]
Hepatic Oxidative Phosphorylation Succinate State 3 [7]: 63 + 4 % Control
Hepatic Oxidative Phosphorylation Succinate State 4 [7]: 122 + 14 % Control
Hepatic Oxidative Phosphorylation alpha-Ketoglutrate State 3 [7]: 70 + 20 % Control
Hepatic Oxidative Phosphorylation alpha-Ketoglutrate State 4 [7]: 127 + 22 % Control
IC50 ([8]; Table VIII; mouse macrophages, 60 min incubation; read-out: Trypsin BAEE IC50): 2.78 µM
LD50 at 336 h [9]: 1800 mg/kg
PMNs cAMP [10]: 99 % Control
IC50 ([11]; Table VIII; mouse macrophages, 60 min incubation; read-out: Elastase IC50): 2.14 µM
activity at 5 µM ([12]; pH 5, 5 × 10^-6 M, N=6, read-out: Mouse Liver Cathep.): 56%
Writhing [13]: 29 % Control
Rat PMNs Acid Phoph. [14]: 50 + 3 % Control
Anti-Inflammatory Activity Sprague Dawley Rats [15]: 59 % Control
activity at 5 µM [16]: 14%
Mouse Liver Acid Phosph. [17]: 82 + 5 % Control
Anti-inflammatory ([18]; Table 1, drugs 8 or 10 mg/kg I.P. 2X, Indomethacin 10 mg/kg): 79 % Control
Anti-Inflammatory Activity Mice ([18]; Table IV, 8 mg/kg I.P.): 58 % Control
IC50 ([19]; Table VIII; mouse macrophages, 60 min incubation; read-out: Prostaglandin Cyclooxygenase IC50): 2.81 µM
IC50 [20]: 7.42 µM
IC50 [21]: 6.71 µM
Anti-arthritic [22]: 53 % Control
Writhing Reflex Cf1 Mice ([6]; Table IV, 8 mg/kg I.P.): 11.5 % Control
IC50 ([23]; Table VII; mouse macrophage cultured cells, 60 min incubation; read-out: Acid Phosphatase IC50): 1.04 µM

SMILES: [BH3-][NH+]1CCOCC1 [Compound 1, Morpholine-borane]
IC50 [1]: 2.36 µM
IC50 [24]: 4.4 µM
IC50 [25]: 7.88 µM
IC50 [26]: 8.99 µM
IC50 ([8]; read-out: Trypsin BAEE IC50; Table VIII; mouse macrophages, 60 min incubation): 2.39 µM
IC50 [3]: 14.9 µM
IC50 ([11]; read-out: Elastase IC50; Table VIII; mouse macrophages, 60 min incubation): 5.94 µM
IC50 ([12]; Table V, mouse hepatic, 60 min incubation, read-out: Cathepsin D IC50): 0.88 µM
IC50 [27]: 10.3 µM
IC50 [28]: 66.9 µM
IC50 [29]: 1.84 µM
IC50 ([19]; read-out: Prostaglandin Cyclooxygenase IC50; Table VIII; mouse macrophages, 60 min incubation): 1.47 µM
response vs control in vivo ([6]; Mus musculus, ip, read-out: Writhing Reflex Cf1 Mice): 15.2%
IC50 [30]: 72.8 µM
IC50 ([23]; read-out: Acid Phosphatase IC50; Table VII; mouse macrophage cultured cells, 60 min incubation): 3.18 µM
IC50 [31]: 3.41 µM
